Data: patent US6635635B2, “Benzothiadiazine compounds” (Les Laboratoires Servier, priority 2000, dated 2003)

tested on: AMPA receptor; test: Study of excitatory fluxes induced by AMPA in Xenopus oocytes (2-electrode voltage-clamp); type: cell-based; details: Xenopus oocytes injected with poly(A+) mRNA from rat cerebral cortex; AMPA 10 μM; 20-24° C.
Method: Study of Excitatory Fluxes Induced by AMPA in Xenopus oocytes
mRNAs are prepared from cerebral cortex of male Wistar rat by the guanidium thiocyanate/phenol/chloroform method. The poly (A^+) mRNAs are isolated by chromatography on oligo-dT cellulose and injected with 50 ng per oocyte. The oocytes are left for 2 to 3 days' incubation at 18° C. to enable expression of the receptors and are then stored at 8-10° C.
Electrophysiological recording is carried out in a Plexiglass® chamber at 20-24° C. in an OR2 medium (J. Exp. Zool., 1973, 184, 321-334) by the 2-electrode “voltage-clamp” method, with a 3rd electrode being placed in the bath to serve as reference.
All the compounds are administered via the incubation medium and the electric current is measured at the end of the period of administration. AMPA is used in a concentration of 10 μM. For each compound studied, there is determined the concentration that doubles (EC2X) or quintuples (EC5X) the intensity of the flux induced by AMPA alone (5 to 50 nA).

Row | SMILES | EC2X (concentration that doubles the intensity of the flux induced by AMPA alone)
1 | CC(=O)Oc1ccc2c(c1)S(=O)(=O)NC1CCCN21 (single isomer, unassigned) [Ex. 8, 5,5-Dioxo-2,3,3a,4-tetrahydro-1H-pyrrolo[2,1-c][1,2,4]benzothiadiazin-7-yl acetate, α isomer dextro] | 20 µM
2 | CC(=O)Oc1ccc2c(c1)S(=O)(=O)NC1CCCN21 (single isomer, unassigned) [Ex. 9, 5,5-Dioxo-2,3,3a,4-tetrahydro-1H-pyrrolo[2,1-c][1,2,4]benzothiadiazin-7-yl acetate, β isomer levo] | 296 µM
3 | O=S1(=O)NC2CCCN2c2ccc(O)cc21 (stereo not drawn) [Ex. 1, 5,5-Dioxo-2,3,3a,4-tetrahydro-1H-pyrrolo[2,1-c][1,2,4]benzothiadiazin-7-ol] | 12 µM
4 | O=S1(=O)NC2CCCN2c2cc(F)c(O)cc21 (stereo not drawn) [Ex. 4, 5,5-Dioxo-8-fluoro-2,3,3a,4-tetrahydro-1H-pyrrolo[2,1-c][1,2,4]-benzothiadiazin-7-ol] | 35 µM
5 | CC(=O)Oc1ccc2c(c1)S(=O)(=O)NC1CCCN21 (stereo not drawn) [Ex. 7, 5,5-Dioxo-2,3,3a,4-tetrahydro-1H-pyrrolo[2,1c][1,2,4]benzothiadiazin-7-yl acetate] | 34 µM
6 | CC(C)(C)C(=O)Oc1ccc2c(c1)S(=O)(=O)NC1CCCN21 (stereo not drawn) [Ex. 10, 5,5-Dioxo-2,3,3a,4-tetrahydro-1H-pyrrolo[2,1-c][1,2,4]benzothiadiazin-7-yl pivalate] | 14 µM
7 | O=C(Oc1ccc2c(c1)S(=O)(=O)NC1CCCN21)c1ccccc1 (stereo not drawn) [Ex. 11, 5,5-Dioxo-2,3,3a,4-tetrahydro-1H-pyrrolo[2,1-c][1,2,4]benzothiadiazin-7-yl benzoate] | 5 µM
8 | Cc1ccc(C(=O)Oc2ccc3c(c2)S(=O)(=O)NC2CCCN32)cc1 (stereo not drawn) [Ex. 28, 5,5-Dioxo-2,3,3a,4-tetrahydro-1H-pyrrolo[2,1-c][1,2,4]-benzothiadiazin-7-yl 4-methylbenzoate] | 3.6 µM
9 | O=C(Oc1ccc2c(c1)S(=O)(=O)NC1CCCN21)c1cccs1 (stereo not drawn) [Ex. 34, 5,5-Dioxo-2,3,3a,4-tetrahydro-1H-pyrrolo[2,1-c][1,2,4]-benzothiadiazin-7-yl 2-thiophenecarboxylate] | 1.3 µM
10 | O=C(Oc1ccc2c(c1)S(=O)(=O)NC1CCCN21)c1ccco1 (stereo not drawn) [Ex. 36, 5,5-Dioxo-2,3,3a,4-tetrahydro-1H-pyrrolo[2,1-c][1,2,4]-benzothiadiazin-7-yl 2-furancarboxylate] | 2.0 µM
11 | O=C(Oc1ccc2c(c1)S(=O)(=O)NC1CCCN21)c1cccnc1 (stereo not drawn) [Ex. 37, 5,5-Dioxo-2,3,3a,4-tetrahydro-1H-pyrrolo[2,1-c][1,2,4]-benzothiadiazin-7-yl nicotinate] | 4.0 µM

tested on: not given; test: not given; details: not given

Row | melting point | SMILES
12 | 169 to 171 °C | O=C(Cc1ccccc1)Oc1ccc2c(c1)S(=O)(=O)NC1CCCN21 (stereo not drawn)
13 | 243 to 247 °C | Cl.O=C(Oc1ccc2c(c1)S(=O)(=O)NC1CCCN21)c1ccncc1 (stereo not drawn)
14 | 227 to 230 °C | Cl.O=C(Oc1ccc2c(c1)S(=O)(=O)NC1CCCN21)c1ccccn1 (stereo not drawn)
15 | 198 to 200 °C | Cc1ccc(C(=O)Oc2ccc3c(c2)S(=O)(=O)NC2CCCN32)cc1 (stereo not drawn) [Ex. 28, 5,5-Dioxo-2,3,3a,4-tetrahydro-1H-pyrrolo[2,1-c][1,2,4]-benzothiadiazin-7-yl 4-methylbenzoate]
16 | 212 to 214 °C | O=C(Oc1ccc2c(c1)S(=O)(=O)NC1CCCN21)c1cccs1 (stereo not drawn) [Ex. 34, 5,5-Dioxo-2,3,3a,4-tetrahydro-1H-pyrrolo[2,1-c][1,2,4]-benzothiadiazin-7-yl 2-thiophenecarboxylate]
17 | 205 to 208 °C | O=C(Oc1ccc2c(c1)S(=O)(=O)NC1CCCN21)c1ccco1 (stereo not drawn) [Ex. 36, 5,5-Dioxo-2,3,3a,4-tetrahydro-1H-pyrrolo[2,1-c][1,2,4]-benzothiadiazin-7-yl 2-furancarboxylate]
18 | 227 to 230 °C | O=C(Oc1ccc2c(c1)S(=O)(=O)NC1CCCN21)c1cccnc1 (stereo not drawn) [Ex. 37, 5,5-Dioxo-2,3,3a,4-tetrahydro-1H-pyrrolo[2,1-c][1,2,4]-benzothiadiazin-7-yl nicotinate]
19 | 157 °C | O=C(Oc1ccc2c(c1)S(=O)(=O)NC1CCCN21)C1CCCCC1 (stereo not drawn) [Example 14, 5,5-Dioxo-2,3,3a,4-tetrahydro-1H-pyrrolo[2,1-c][1,2,4]-benzothiadiazin-7-yl cyclohexanecarboxylate]
20 | 148 to 150 °C | O=C(Oc1ccc2c(c1)S(=O)(=O)NC1CCCN21)C1CCCC1 (stereo not drawn) [Example 16, 5,5-Dioxo-2,3,3a,4-tetrahydro-1H-pyrrolo[2,1-c][1,2,4]-benzothiadiazin-7-yl cyclopentanecarboxylate]
21 | 166 to 170 °C | O=C(Oc1ccc2c(c1)S(=O)(=O)NC1CCCN21)C1CCC1 (stereo not drawn) [Example 17, 5,5-Dioxo-2,3,3a,4-tetrahydro-1H-pyrrolo[2,1-c][1,2,4]-benzothiadiazin-7-yl cyclobutanecarboxylate]
22 | 169 to 171 °C | O=C(Oc1ccc2c(c1)S(=O)(=O)NC1CCCN21)C1CC1 (stereo not drawn) [Example 18, 5,5-Dioxo-2,3,3a,4-tetrahydro-1H-pyrrolo[2,1-c][1,2,4]-benzothiadiazin-7-yl cyclopropanecarboxylate]
23 | 207 to 210 °C | O=C(Oc1ccc2c(c1)S(=O)(=O)NC1CCCN21)c1ccc2ccccc2c1 (stereo not drawn) [Example 20, 5,5-Dioxo-2,3,3a,4-tetrahydro-1H-pyrrolo[2,1-c][1,2,4]-benzothiadiazin-7-yl 2-naphthalenecarboxylate]
24 | 249 to 253 °C | O=C(Oc1ccc2c(c1)S(=O)(=O)NC1CCCN21)c1ccc(-c2ccccc2)cc1 (stereo not drawn) [Example 21, 5,5-Dioxo-2,3,3a,4-tetrahydro-1H-pyrrolo[2,1-c][1,2,4]-benzothiadiazin-7-yl [1,1′-biphenyl]-4-carboxylate]
25 | 193 to 198 °C | O=C(C=Cc1ccccc1)Oc1ccc2c(c1)S(=O)(=O)NC1CCCN21 (stereo not drawn) [Example 23, 5,5-Dioxo-2,3,3a,4-tetrahydro-1H-pyrrolo[2,1-c][1,2,4]-benzothiadiazin-7-yl 3-phenyl-2-propenoate]
26 | 216 to 221 °C | COc1ccc(C(=O)Oc2ccc3c(c2)S(=O)(=O)NC2CCCN32)cc1 (stereo not drawn) [Example 24, 5,5-Dioxo-2,3,3a,4-tetrahydro-1H-pyrrolo[2,1-c][1,2,4]-benzothiadiazin-7-yl 4-methoxybenzoate]
27 | 243 to 247 °C | O=C(Oc1ccc2c(c1)S(=O)(=O)NC1CCCN21)c1cccc(Cl)c1 (stereo not drawn) [Example 26, 5,5-Dioxo-2,3,3a,4-tetrahydro-1H-pyrrolo[2,1-c][1,2,4]-benzothiadiazin-7-yl 3-chlorobenzoate]
28 | 260 to 264 °C | N#Cc1ccc(C(=O)Oc2ccc3c(c2)S(=O)(=O)NC2CCCN32)cc1 (stereo not drawn) [Example 27, 5,5-Dioxo-2,3,3a,4-tetrahydro-1H-pyrrolo[2,1-c][1,2,4]-benzothiadiazin-7-yl 4-cyanobenzoate]
29 | 214 to 218 °C | Cc1cccc(C(=O)Oc2ccc3c(c2)S(=O)(=O)NC2CCCN32)c1 (stereo not drawn) [Example 29, 5,5-Dioxo-2,3,3a,4-tetrahydro-1H-pyrrolo[2,1-c][1,2,4]-benzothiadiazin-7-yl 3-methylbenzoate]
30 | 218 to 221 °C | Cc1ccccc1C(=O)Oc1ccc2c(c1)S(=O)(=O)NC1CCCN21 (stereo not drawn) [Example 30, 5,5-Dioxo-2,3,3a,4-tetrahydro-1H-pyrrolo[2,1-c][1,2,4]-benzothiadiazin-7-yl 2-methylbenzoate]
31 | 203 to 206 °C | N#Cc1cccc(C(=O)Oc2ccc3c(c2)S(=O)(=O)NC2CCCN32)c1 (stereo not drawn) [Example 31, 5,5-Dioxo-2,3,3a,4-tetrahydro-1H-pyrrolo[2,1-c][1,2,4]-benzothiadiazin-7-yl 3-cyanobenzoate]
32 | 208 to 212 °C | O=C(Oc1ccc2c(c1)S(=O)(=O)NC1CCCN21)c1ccsc1 (stereo not drawn) [Example 33, 5,5-Dioxo-2,3,3a,4-tetrahydro-1H-pyrrolo[2,1-c][1,2,4]-benzothiadiazin-7-yl 3-thiophenecarboxylate]
33 | 185 to 187 °C | O=C(Oc1ccc2c(c1)S(=O)(=O)NC1CCCN21)c1ccoc1 (stereo not drawn) [Example 35, 5,5-Dioxo-2,3,3a,4-tetrahydro-1H-pyrrolo[2,1-c][1,2,4]-benzothiadiazin-7-yl 3-furancarboxylate]
